For eleven molecules, inhibition results are on record in patent US9637483B2, “Heterocyclic compound” (TAKEDA PHARMACEUTICAL COMPANY LIMITED, priority 2013, dated 2017).

What all share (type): biochemical
One assay addresses T1, JAK1 (Homo sapiens, UniProt P23458).
T1 construct: purchased Invitrogen
The experiment in a line: JAK1 enzyme inhibition test (LANCE method). The note with it: 1 μM test compound; read-out: JAK1 enzyme inhibitory activity (%, 1 μM). A digest of the protocol: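 Inhibition expressed against no-enzyme wells (100% inhibition), from time-resolved fluorescence at 665 nm after Eu-anti-phosphotyrosine antibody/EDTA detection. Kinase reaction ran 1 h at room temperature, pH 7.5 HEPES buffer, ULight-JAK1 substrate and ATP diluted to 300 nM and 150 μM before addition.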

The next assay has as its target T2, JAK2 (Homo sapiens, UniProt O60674).
T2 construct: purchased Invitrogen
The experiment in a line: JAK2 enzyme inhibition test (LANCE method). Particulars: 1 μM test compound; read-out: JAK2 enzyme inhibitory activity (%, 1 μM). A digest of the protocol: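 TR-FRET (LANCE) read-out, ex 340/em 665 nm with 100 μs delay, after 1 hr room-temperature detection with europium anti-phosphotyrosine antibody and 20 mM EDTA. The preceding 1 hr kinase reaction combined JAK2, ULight-JAK1 substrate and ATP, added as 6 ng/mL, 300 nM and 45 μM solutions; enzyme-free wells defined 100% inhibition.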
Background: Time-resolved FRET reads energy transfer from a long-lived donor to a nearby acceptor.

The next assay concerns the target T3, JAK3 (Homo sapiens, UniProt P52333).
T3 construct: purchased Invitrogen
T3 sequence (P52333 1-1124): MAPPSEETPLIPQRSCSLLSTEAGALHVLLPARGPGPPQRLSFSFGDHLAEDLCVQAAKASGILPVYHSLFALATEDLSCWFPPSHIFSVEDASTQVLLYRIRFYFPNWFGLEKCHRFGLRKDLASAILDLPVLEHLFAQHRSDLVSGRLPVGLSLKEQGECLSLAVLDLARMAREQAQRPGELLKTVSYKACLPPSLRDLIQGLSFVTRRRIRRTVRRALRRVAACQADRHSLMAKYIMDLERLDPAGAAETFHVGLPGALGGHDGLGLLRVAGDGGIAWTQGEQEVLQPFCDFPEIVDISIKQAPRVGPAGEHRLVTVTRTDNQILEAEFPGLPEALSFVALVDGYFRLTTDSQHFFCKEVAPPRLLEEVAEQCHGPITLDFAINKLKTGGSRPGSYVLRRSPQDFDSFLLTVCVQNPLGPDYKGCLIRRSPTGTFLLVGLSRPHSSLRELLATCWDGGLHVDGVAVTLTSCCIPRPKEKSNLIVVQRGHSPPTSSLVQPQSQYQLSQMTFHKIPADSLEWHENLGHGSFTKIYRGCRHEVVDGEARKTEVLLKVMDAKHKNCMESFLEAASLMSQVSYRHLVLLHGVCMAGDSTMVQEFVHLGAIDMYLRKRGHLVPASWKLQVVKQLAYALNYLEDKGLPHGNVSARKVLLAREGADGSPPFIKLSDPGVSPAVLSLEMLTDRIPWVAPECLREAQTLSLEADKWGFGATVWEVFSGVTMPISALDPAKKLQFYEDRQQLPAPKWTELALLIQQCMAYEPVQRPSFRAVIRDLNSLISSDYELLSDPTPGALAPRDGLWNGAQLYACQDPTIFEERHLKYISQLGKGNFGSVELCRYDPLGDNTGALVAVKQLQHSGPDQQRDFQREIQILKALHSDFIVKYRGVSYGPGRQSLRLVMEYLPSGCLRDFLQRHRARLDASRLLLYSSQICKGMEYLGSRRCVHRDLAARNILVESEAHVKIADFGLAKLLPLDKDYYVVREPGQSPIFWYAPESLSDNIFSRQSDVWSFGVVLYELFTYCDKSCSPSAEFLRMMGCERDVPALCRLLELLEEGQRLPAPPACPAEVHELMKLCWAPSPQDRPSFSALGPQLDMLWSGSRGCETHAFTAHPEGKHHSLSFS
The experiment in a line: JAK3 enzyme inhibition test (LANCE method). The note with it: 1 μM test compound; read-out: JAK3 enzyme inhibitory activity (%, 1 μM). A digest of the protocol: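 TR-FRET (LANCE) read: 1 h room-temperature reaction, EDTA quench, Eu-anti-phosphotyrosine antibody, emission 665 nm after 340 nm excitation. Added solutions held 12 ng/mL JAK3, 300 nM ULight-JAK1 substrate and 15 μM ATP (pH 7.5 HEPES). Activity expressed against no-enzyme wells defined as full inhibition.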

The target of another assay is T4, TYK2 (Homo sapiens, UniProt P29597).
T4 construct: purchased Invitrogen
The experiment in a line: TYK2 enzyme inhibition test (LANCE method). The note with it: 1 μM test compound; read-out: TYK2 enzyme inhibitory activity (%, 1 μM). A digest of the protocol: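 TR-FRET (LANCE) readout: after 1 h room-temperature kinase reaction, EDTA plus 4 nM Eu-labelled anti-phosphotyrosine antibody added, signal at 665 nm (340 nm excitation). Reaction combined TYK2, ULight-JAK1 substrate and ATP, prepared at 375 ng/mL, 300 nM and 30 μM before addition, in pH 7.5 HEPES/MgCl2 buffer; enzyme-free wells define full inhibition.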

T1 sequence (P23458 whole entry): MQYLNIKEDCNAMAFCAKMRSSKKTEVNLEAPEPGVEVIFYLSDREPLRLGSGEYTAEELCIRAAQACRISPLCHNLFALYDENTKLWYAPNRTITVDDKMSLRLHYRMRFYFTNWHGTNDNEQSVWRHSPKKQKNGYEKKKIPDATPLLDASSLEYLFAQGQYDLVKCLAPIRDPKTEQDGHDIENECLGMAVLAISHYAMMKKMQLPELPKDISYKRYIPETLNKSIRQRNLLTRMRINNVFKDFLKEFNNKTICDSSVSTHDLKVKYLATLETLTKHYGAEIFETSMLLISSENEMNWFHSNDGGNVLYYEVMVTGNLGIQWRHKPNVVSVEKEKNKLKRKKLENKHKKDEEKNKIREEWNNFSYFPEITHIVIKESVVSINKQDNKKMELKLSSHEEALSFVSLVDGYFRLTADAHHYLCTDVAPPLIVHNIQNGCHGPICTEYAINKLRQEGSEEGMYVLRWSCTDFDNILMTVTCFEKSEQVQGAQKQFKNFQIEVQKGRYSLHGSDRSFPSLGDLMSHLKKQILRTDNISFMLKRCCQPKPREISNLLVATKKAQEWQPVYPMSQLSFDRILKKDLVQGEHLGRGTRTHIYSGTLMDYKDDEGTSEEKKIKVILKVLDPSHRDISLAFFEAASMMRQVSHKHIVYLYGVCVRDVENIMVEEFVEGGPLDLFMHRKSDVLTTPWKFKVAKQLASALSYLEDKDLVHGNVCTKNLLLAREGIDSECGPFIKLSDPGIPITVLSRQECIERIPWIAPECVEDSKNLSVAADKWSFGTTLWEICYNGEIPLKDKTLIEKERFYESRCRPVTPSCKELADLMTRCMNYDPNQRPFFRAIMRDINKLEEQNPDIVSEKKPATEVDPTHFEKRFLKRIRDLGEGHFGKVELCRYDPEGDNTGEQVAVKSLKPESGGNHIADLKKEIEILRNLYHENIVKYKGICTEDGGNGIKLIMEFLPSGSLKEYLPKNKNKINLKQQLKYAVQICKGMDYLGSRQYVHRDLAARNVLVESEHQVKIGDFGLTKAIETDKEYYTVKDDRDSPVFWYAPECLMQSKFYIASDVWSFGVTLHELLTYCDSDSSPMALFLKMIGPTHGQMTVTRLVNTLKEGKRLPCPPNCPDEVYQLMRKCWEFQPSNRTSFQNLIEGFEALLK
T2 sequence (O60674 whole entry): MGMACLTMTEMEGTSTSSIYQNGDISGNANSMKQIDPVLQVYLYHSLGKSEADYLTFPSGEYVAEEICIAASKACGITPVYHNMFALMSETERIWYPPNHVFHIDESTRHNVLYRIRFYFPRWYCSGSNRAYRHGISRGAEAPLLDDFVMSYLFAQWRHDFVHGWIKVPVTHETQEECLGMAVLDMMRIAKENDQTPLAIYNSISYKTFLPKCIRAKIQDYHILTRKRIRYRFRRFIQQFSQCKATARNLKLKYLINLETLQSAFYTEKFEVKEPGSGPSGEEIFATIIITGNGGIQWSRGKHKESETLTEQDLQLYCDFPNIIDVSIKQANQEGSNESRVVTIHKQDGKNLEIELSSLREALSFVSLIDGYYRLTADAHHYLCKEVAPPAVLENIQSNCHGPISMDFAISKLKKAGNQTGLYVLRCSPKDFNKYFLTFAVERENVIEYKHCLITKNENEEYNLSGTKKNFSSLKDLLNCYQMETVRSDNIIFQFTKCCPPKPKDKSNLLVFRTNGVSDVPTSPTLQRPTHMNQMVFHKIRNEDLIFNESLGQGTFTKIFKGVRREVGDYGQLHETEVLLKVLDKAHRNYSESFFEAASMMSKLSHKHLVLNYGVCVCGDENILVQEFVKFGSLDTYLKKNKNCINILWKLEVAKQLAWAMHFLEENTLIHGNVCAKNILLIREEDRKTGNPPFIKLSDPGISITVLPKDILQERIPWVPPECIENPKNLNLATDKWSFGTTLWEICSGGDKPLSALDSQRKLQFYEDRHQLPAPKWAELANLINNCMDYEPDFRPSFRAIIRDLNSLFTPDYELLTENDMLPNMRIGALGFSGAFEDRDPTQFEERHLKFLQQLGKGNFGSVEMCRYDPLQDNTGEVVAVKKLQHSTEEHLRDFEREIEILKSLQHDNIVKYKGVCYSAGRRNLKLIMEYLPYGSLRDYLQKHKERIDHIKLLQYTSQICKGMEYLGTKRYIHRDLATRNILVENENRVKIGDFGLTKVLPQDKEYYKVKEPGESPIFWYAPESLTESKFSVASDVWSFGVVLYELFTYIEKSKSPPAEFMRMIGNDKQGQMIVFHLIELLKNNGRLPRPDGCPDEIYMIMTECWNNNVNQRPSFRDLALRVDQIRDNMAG
T4 sequence (P29597 whole entry): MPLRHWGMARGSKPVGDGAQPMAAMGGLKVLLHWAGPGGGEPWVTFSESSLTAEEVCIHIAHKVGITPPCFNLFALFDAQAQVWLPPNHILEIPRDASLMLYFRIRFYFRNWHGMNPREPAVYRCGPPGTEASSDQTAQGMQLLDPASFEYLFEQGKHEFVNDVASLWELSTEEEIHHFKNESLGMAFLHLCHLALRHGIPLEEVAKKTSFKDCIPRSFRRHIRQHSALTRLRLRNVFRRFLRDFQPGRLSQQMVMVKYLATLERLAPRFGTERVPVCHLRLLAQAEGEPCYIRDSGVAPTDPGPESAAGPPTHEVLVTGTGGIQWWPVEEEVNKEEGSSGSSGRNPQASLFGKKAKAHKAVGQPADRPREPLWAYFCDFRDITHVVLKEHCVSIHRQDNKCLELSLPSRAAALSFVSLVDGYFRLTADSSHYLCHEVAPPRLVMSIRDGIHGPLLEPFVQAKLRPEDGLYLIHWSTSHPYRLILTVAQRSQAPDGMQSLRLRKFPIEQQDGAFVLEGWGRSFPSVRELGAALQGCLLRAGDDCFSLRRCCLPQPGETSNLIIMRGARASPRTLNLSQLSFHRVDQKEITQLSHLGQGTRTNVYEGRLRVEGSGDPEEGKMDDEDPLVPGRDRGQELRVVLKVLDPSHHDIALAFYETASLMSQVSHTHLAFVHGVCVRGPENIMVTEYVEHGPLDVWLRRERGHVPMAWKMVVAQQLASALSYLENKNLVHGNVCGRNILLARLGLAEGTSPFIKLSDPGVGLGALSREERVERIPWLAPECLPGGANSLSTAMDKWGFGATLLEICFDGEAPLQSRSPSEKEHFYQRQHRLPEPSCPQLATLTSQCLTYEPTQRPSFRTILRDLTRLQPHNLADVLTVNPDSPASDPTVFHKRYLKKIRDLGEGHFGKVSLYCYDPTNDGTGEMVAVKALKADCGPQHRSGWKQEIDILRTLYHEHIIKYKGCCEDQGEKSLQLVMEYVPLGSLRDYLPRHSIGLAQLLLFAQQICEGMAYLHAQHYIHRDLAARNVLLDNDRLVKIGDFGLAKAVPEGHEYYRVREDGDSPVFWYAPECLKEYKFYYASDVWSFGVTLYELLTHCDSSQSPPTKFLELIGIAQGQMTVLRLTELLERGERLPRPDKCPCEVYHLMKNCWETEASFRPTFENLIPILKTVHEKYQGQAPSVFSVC

As to `COC1(c2cc(-c3cn([C@@H](C)C4CC4)c(=O)c4c(N)n[nH]c34)nn2C)CN(S(=O)(=O)C(C)C)C1` [Example 98, 3-amino-5-((1S)-1-cyclopropylethyl)-7-(5-(1-(isopropylsulfonyl)-3-methoxyazetidin-3-yl)-1-methyl-1H-pyrazol-3-yl)-1,5-dihydro-4H-pyrazolo[4,3-c]pyridin-4-one], the inhibition at 1 µM on JAK1 was found to be 97%; on JAK2, 100%; at JAK3, 100%; at TYK2, 100%.
For `C[C@@H](C1CC1)n1cc(-c2cc(N3CCC(C)(O)CC3)n(C)n2)c2[nH]nc(N)c2c1=O` [Example 8, 3-amino-5-((1S)-1-cyclopropylethyl)-7-(5-(4-hydroxy-4-methylpiperidin-1-yl)-1-methyl-1H-pyrazol-3-yl)-1,5-dihydro-4H-pyrazolo[4,3-c]pyridin-4-one], the inhibition at 1 µM came out at 99% on JAK1, 99% at JAK2, 100% on JAK3 and 99% on TYK2.
On to `COC1(c2cc(-c3cn(-c4c(F)cccc4F)c(=O)c4c(N)n[nH]c34)nn2C)CN(C(C)=O)C1` [Example 131, 7-(5-(1-acetyl-3-methoxyazetidin-3-yl)-1-methyl-1H-pyrazol-3-yl)-3-amino-5-(2,6-difluorophenyl)-1,5-dihydro-4H-pyrazolo[4,3-c]pyridin-4-one], for which the inhibition at 1 µM at JAK1 amounted to 95%; on JAK2, 98%; at JAK3, 99%; on TYK2 it was 100%.
For `Cn1nc(-c2cn(C(C3CC3)C3CC3)c(=O)c3c(N)n[nH]c23)cc1N1CCC[C@@H]1CO` [Example 157, 3-amino-5-(dicyclopropylmethyl)-7-(5-((2R)-2-(hydroxymethyl)pyrrolidin-1-yl)-1-methyl-1H-pyrazol-3-yl)-1,5-dihydro-4H-pyrazolo[4,3-c]pyridin-4-one] the same measures were 99%, 99%, 100% and 101%.
`COC1(c2cc(-c3cn([C@@H](C)C4CC4)c(=O)c4c(N)n[nH]c34)nn2C)CN(C(=O)C(C)C)C1` [Example 97, 3-amino-5-((1S)-1-cyclopropylethyl)-7-(5-(1-isobutyryl-3-methoxyazetidin-3-yl)-1-methyl-1H-pyrazol-3-yl)-1,5-dihydro-4H-pyrazolo[4,3-c]pyridin-4-one]: the inhibition at 1 µM amounted to 97% on JAK1, 99% at JAK2, 99% on JAK3 and 100% at TYK2.
For `CC(n1cc(-c2cc(N3CCOCC3)n(C)n2)c2[nH]nc(N)c2c1=O)C(C)(C)O` (centres unmarked) [Example 99, 3-amino-5-(3-hydroxy-3-methylbutan-2-yl)-7-(1-methyl-5-(morpholin-4-yl)-1H-pyrazol-3-yl)-1,5-dihydro-4H-pyrazolo[4,3-c]pyridin-4-one], the inhibition at 1 µM worked out at 83% on JAK1, 85% on JAK2, 97% on JAK3 and 99% at TYK2.
`Cn1nc(-c2cn(-c3c(F)cccc3C#N)c(=O)c3c(N)n[nH]c23)cc1C1=CCOCC1` [Example 68, 2-(3-amino-7-(5-(3,6-dihydro-2H-pyran-4-yl)-1-methyl-1H-pyrazol-3-yl)-4-oxo-1,4-dihydro-5H-pyrazolo[4,3-c]pyridin-5-yl)-3-fluorobenzonitrile]: the inhibition at 1 µM at JAK1 came to 99%; at JAK2, 97%; on JAK3, 99%; at TYK2, 99%.
Turning to `C[C@@H](C1CC1)n1cc(-c2cc(N3CCC(O)(C(F)(F)F)CC3)n(C)n2)c2[nH]nc(N)c2c1=O` [Example 94, 3-amino-5-((1S)-1-cyclopropylethyl)-7-(5-(4-hydroxy-4-(trifluoromethyl)piperidin-1-yl)-1-methyl-1H-pyrazol-3-yl)-1,5-dihydro-4H-pyrazolo[4,3-c]pyridin-4-one], the inhibition at 1 µM on JAK1 was determined as 100%; on JAK2, 100%; at JAK3, 100%; at TYK2, 99%.
Turning to `CC(C)[C@H](C)n1cc(-c2cc(N3CC[C@@H](O)C3)n(C)n2)c2[nH]nc(N)c2c1=O` [Example 21, 3-amino-7-(5-((3R)-3-hydroxypyrrolidin-1-yl)-1-methyl-1H-pyrazol-3-yl)-5-((2S)-3-methylbutan-2-yl)-1,5-dihydro-4H-pyrazolo[4,3-c]pyridin-4-one], the inhibition at 1 µM was found to be 97% on JAK1, 98% at JAK2, 99% on JAK3 and 99% on TYK2.
On to `COC1CCN(c2cc(-c3cn([C@@H](C)C(C)C)c(=O)c4c(N)n[nH]c34)nn2C)CC1` [Example 14, 3-amino-7-(5-(4-methoxypiperidin-1-yl)-1-methyl-1H-pyrazol-3-yl)-5-((2S)-3-methylbutan-2-yl)-1,5-dihydro-4H-pyrazolo[4,3-c]pyridin-4-one], for which the inhibition at 1 µM at JAK1 was 97%; at JAK2, 99%; at JAK3, 99%; at TYK2, 99%.
Regarding `Cn1nc(-c2cn(-c3c(F)cccc3F)c(=O)c3c(N)n[nH]c23)cc1N1CCC[C@@H]1CC#N` [Example 142, ((2R)-1-(3-(3-amino-5-(2,6-difluorophenyl)-4-oxo-4,5-dihydro-1H-pyrazolo[4,3-c]pyridin-7-yl)-1-methyl-1H-pyrazol-5-yl)pyrrolidin-2-yl)acetonitrile], the inhibition at 1 µM at JAK1 was determined as 98%; at JAK2 it was 98%; on JAK3, 99%; on TYK2 it was 98%.
